The values that follow are results of earlier work, collected in US20070142399A1, “Dual function drugs and uses thereof” (Psychiatric Genomics, Inc., priority 2003, published 2007).

In one data set the target is D2 receptor (Homo sapiens, UniProt P14416).
Another data set has as its target D1 receptor (Homo sapiens, UniProt P21728).

Sequence of D1 receptor (P21728 whole entry): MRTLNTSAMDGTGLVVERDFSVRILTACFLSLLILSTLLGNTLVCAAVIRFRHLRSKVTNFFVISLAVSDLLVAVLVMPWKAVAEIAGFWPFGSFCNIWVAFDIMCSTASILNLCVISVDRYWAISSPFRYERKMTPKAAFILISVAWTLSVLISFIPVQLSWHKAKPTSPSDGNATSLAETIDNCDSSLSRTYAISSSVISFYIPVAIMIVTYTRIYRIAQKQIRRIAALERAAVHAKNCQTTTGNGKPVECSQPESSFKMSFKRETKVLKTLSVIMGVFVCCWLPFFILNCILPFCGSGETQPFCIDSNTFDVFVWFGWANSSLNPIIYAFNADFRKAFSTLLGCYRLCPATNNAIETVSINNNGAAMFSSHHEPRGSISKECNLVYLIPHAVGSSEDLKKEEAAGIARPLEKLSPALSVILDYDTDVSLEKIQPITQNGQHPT
Sequence of D2 receptor (P14416 whole entry): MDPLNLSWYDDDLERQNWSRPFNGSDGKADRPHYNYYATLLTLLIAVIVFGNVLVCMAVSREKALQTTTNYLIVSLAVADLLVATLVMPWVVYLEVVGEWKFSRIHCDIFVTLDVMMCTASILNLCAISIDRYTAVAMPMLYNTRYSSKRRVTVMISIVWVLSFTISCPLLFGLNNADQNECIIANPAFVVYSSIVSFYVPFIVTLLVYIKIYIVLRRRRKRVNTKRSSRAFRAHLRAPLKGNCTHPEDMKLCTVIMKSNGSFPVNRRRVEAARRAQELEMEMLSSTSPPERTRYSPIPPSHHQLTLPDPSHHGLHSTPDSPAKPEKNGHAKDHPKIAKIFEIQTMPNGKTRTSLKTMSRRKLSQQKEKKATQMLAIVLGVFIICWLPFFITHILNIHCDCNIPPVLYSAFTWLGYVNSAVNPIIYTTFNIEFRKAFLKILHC

As for `Oc1cc2c(cc1O)CC(NCc1ccccc1)CC2` (centres unmarked) [compound 80], the D2 agonist activity entry at D2 receptor was “residual partial D2 agonist activity”. Also, the “potency at the D1 receptor as an agonist” value at D1 receptor is “not potent enough”.
